Read-outs that look alike come from different tables or passages of the source. Values belong to the compound of their own block, whether it stands above or below them.
What was measured:
[1] = Sweetness perception threshold (FEMA method, 2-AFC vs 1.5% sugar) in neutral water; format: in vivo, human; settings: for % Frequency / PC (paired comparison count, panelists choosing the sample as sweeter): 2-AFC, n = 30
Description: A series of experiments were performed to evaluate the effect of Reb AM on taste and flavor profile. The sweetness and taste/flavor modification can influence each other in food and beverage applications. To determine the influence of the taste and flavor modification in different applications, the FEMA (Flavor and Extract Manufacturing Association) prescribes a sensory method that determines the sweetness perception threshold determination presented in Experiment 1, which is discussed below.
Experiment 1 provides the estimate of Reb AM concentration in water that barely contributes to sweetness perception. […] The summary of sweetness perception threshold for selected steviol glycosides is below in Table 11.
Therefore we selected 50 ppm of Reb AM as the recognition threshold concentration.

[2] = Solubility characteristics and solution stability in water; format: physicochemical; settings: for Solubility: summary of solution stability in water
Description: Solubility characteristics were measured as follows. Prepare the following solutions in water and stir at 700 rpm for each. Add heat if necessary at 2 minutes and 30 seconds of stirring. Using a stopwatch, determine how long it takes all powder to dissolve completely and record the temperature at which it dissolves. The following table summarizes the solubility characteristics of Rebaudiosides D, M, and AM.

[3] = Isosweet determination (2-AFC) vs sucrose in acidified water, sweetness potency; format: in vivo, human; settings: pH = 3.2
Description: As an example, Reb AM was evaluated.

[4] = FEMA GRAS publication; cited from earlier work
[5] = Flavor modification of chocolate flavored dairy protein shake, sensory panel; format: in vivo, human; parameters: Sweet Intensity mean score / Bitterness mean score / Metallic Note mean score / Cocoa Flavor mean score / Dairy Note mean score / Whey Protein Note mean score / Vanilla Note mean score / Sweet Aftertaste mean score / Bitter Aftertaste mean score / Overall Liking mean score: scale not given here
Text: Thirty trained panelists evaluated two samples of chocolate flavored dairy protein shake for overall acceptance and attribute intensities (cocoa flavor, dairy note, whey protein, vanilla, metallic, sweetness, bitterness and aftertaste). The two samples included: 1) no sugar added “Control” sample containing 300 ppm PureCircle Reb A and 2) no sugar added “Test” sample containing 300 ppm PureCircle Reb A and 50 ppm Reb AM. The objective of the test was to determine if the addition of Reb AM affects the flavor profile of a milk product.
The test objective is to determine if the flavor profile and overall acceptance of a control sample of dairy beverage application differs from a Test sample of the same beverage containing Reb AM.

[6] = Taste panel of no-calorie Lemon-lime carbonated soft drink; format: in vivo, human; settings: 500 ppm in Lemon-lime CSD
Text: A group of trained and experienced taste panel members evaluated no-calorie Lemon-lime carbonated soft drink (CSD) sweetened with 500 ppm of Reb AM, Reb D, or Reb M samples.

[7] = Flavor modification of Raspberry Watermelon Coconut Water, sensory panel; format: in vivo, human; parameters: Sweet Intensity mean score / Bitter Intensity mean score / Astringency mean score / Coconut Flavor mean score / Watermelon Flavor mean score / Raspberry Flavor mean score / Artificial/Chemical Note mean score / Sweet Aftertaste mean score / Bitter Aftertaste mean score / Overall Liking mean score: scale not given here
Text: Thirty panel members evaluated two samples of raspberry watermelon flavored coconut water for overall acceptance and attribute intensities (sweetness, Raspberry flavor, watermelon flavor, coconut water flavor, saltiness, bitterness, and sweet aftertaste, bitter aftertaste) in two sessions. In session one, the two samples included: 1) store-bought Raspberry Watermelon Coconut Water control sample and 2) store-bought Raspberry Watermelon Coconut Water test sample containing Reb AM. The objective of the test was to determine if the addition of Reb AM affects the flavor profile of a non-alcoholic beverage.
The test objective is to determine if the flavor profile and overall acceptance of a Control sample of flavored coconut water differs from a Test sample of the same beverage containing Reb AM.

[8] = 1.5% Sucrose vs 30 ppm Reb AM in neutral water
[9] = 1.5% Sucrose vs 50 ppm Reb AM in neutral water
[10] = 1.5% Sucrose vs 70 ppm of Reb AM in neutral water
[11] = 1.5% Sucrose vs 100 ppm Reb AM in neutral water
[12] = 50 ppm Reb AM added to shake with 300 ppm Reb A, 95% confidence
[13] = NSA Chocolate Vanilla Protein Dairy Shake w Reb A & 50 ppm Reb AM, 30 panelists
[14] = 50 ppm Reb AM in coconut water, 95% confidence
[15] = Coconut water (raspberry/watermelon flavor) with 50 ppm of Reb AM, 30 panelists

Structure (SMILES): OC[C@H]1O[C@@](CO)(O[C@H]2O[C@H](CO)[C@@H](O)[C@H](O)[C@H]2O)[C@@H](O)[C@@H]1O [Sucrose]
% Frequency [1, 8]: 96.7%
PC (paired comparison count, panelists choosing the sample as sweeter) [1, 8]: 29
% Frequency [1, 9]: 76.7%
PC (paired comparison count, panelists choosing the sample as sweeter) [1, 9]: 23
% Frequency [1, 10]: 30%
PC (paired comparison count, panelists choosing the sample as sweeter) [1, 10]: 9
% Frequency [1, 11]: 10%
PC (paired comparison count, panelists choosing the sample as sweeter) [1, 11]: 3

Comment on solubility ([2]; Test Conc. 0.05%): Easily Soluble
Dissolution in water (Heated), temperature ([2]; Test Conc. 0.05%): temp: 39 deg. C.
Solution after 24 hrs ([2]; Test Conc. 0.05%): Clear
Solution after 48 hrs ([2]; Test Conc. 0.05%): Clear
Comment on solubility ([2]; Test Conc. 0.1%): Easily Soluble
Dissolution in water (Heated), temperature ([2]; Test Conc. 0.1%): temp: 72 deg. C.
Solution after 24 hrs ([2]; Test Conc. 0.1%): Clear
Solution after 48 hrs ([2]; Test Conc. 0.1%): Clear
Comment on solubility ([2]; Test Conc. 0.3%): Requires
Dissolution in water (Heated), temperature ([2]; Test Conc. 0.3%): 78.5 deg. C.
Solubility [2]: 0.1%
Structure (SMILES): C=C1C[C@@]23CC[C@H]4[C@@](C)(CCC[C@@]4(C)C(=O)O[C@@H]4O[C@H](CO)[C@@H](O)[C@H](O)[C@H]4O[C@@H]4O[C@H](CO)[C@@H](O)[C@H](O)[C@H]4O)[C@@H]2CC[C@]1(O[C@@H]1O[C@H](CO)[C@@H](O)[C@H](O[C@@H]2O[C@H](CO)[C@@H](O)[C@H](O)[C@H]2O)[C@H]1O[C@@H]1O[C@H](CO)[C@@H](O)[C@H](O)[C@H]1O)C3 [Reb D, rebaudioside D]
Sweetness Equivalent (ppm) in Water ([3]; 2.5% SE): 62 ppm
Sweetness Potency in Water ([3]; 2.5% SE): 403 x sugar equivalent
Sweetness Equivalent (ppm) in Water ([3]; 5.0% SE): 212 ppm
Sweetness Potency in Water ([3]; 5.0% SE): 236 x sugar equivalent
Sweetness Equivalent (ppm) in Water ([3]; 7.5% SE): 500 ppm
Sweetness Potency in Water ([3]; 7.5% SE): 150 x sugar equivalent
Sweetness Equivalent (ppm) in Water ([3]; 10.0% SE): 926 ppm
Sweetness Potency in Water ([3]; 10.0% SE): 108 x sugar equivalent
Sweetness Perception Threshold Concentration [4]: 32.5 ppm

Comment on solubility ([2]; Test Conc. 0.1%): Easily Soluble
Dissolution in water (Heated), time ([2]; Test Conc. 0.1%): No heat needed
Dissolution water (Ambient), time of agitation ([2]; Test Conc. 0.1%): 12 minutes of
Solution after 24 hrs ([2]; Test Conc. 0.1%): Clear
Solution after 48 hrs ([2]; Test Conc. 0.1%): Clear
Comment on solubility ([2]; Test Conc. 0.3%): Moderately
Dissolution in water (Heated), temperature ([2]; Test Conc. 0.3%): Heated to 99 deg C. deg. C.
Solution after 24 hrs ([2]; Test Conc. 0.3%): Clear
Solution after 48 hrs ([2]; Test Conc. 0.3%): Slight
Comment on solubility ([2]; Test Conc. 0.5%): Requires
Dissolution in water (Heated), temperature ([2]; Test Conc. 0.5%): 87 deg. C. with
Dissolution in water (Heated), time ([2]; Test Conc. 0.5%): agitation. 16 min
Solution after 24 hrs ([2]; Test Conc. 0.5%): Moderate
Solubility [2]: 0.3%
Structure (SMILES): C=C1C[C@@]23CC[C@H]4[C@@](C)(CCC[C@@]4(C)C(=O)O[C@@H]4O[C@H](CO)[C@@H](O)[C@H](O[C@@H]5O[C@H](CO)[C@@H](O)[C@H](O)[C@H]5O)[C@H]4O[C@@H]4O[C@H](CO)[C@@H](O)[C@H](O)[C@H]4O)[C@@H]2CC[C@]1(O[C@@H]1O[C@H](CO)[C@@H](O)[C@H](O[C@@H]2O[C@H](CO)[C@@H](O)[C@H](O)[C@H]2O)[C@H]1O[C@@H]1O[C@H](CO)[C@@H](O)[C@H](O)[C@H]1O)C3 [Reb M, rebaudioside M]
Sweetness Equivalent (ppm) in Water ([3]; 2.5% SE): 84 ppm
Sweetness Potency in Water ([3]; 2.5% SE): 298 x sugar equivalent
Sweetness Equivalent (ppm) in Water ([3]; 5.0% SE): 209 ppm
Sweetness Potency in Water ([3]; 5.0% SE): 239 x sugar equivalent
Sweetness Equivalent (ppm) in Water ([3]; 7.5% SE): 418 ppm
Sweetness Potency in Water ([3]; 7.5% SE): 179 x sugar equivalent
Sweetness Equivalent (ppm) in Water ([3]; 10.0% SE): 832 ppm
Sweetness Potency in Water ([3]; 10.0% SE): 90 x sugar equivalent
Sweetness Perception Threshold Concentration [4]: 24 ppm

Comment on solubility ([2]; Test Conc. 1%): Easily Soluble
Dissolution in water (Heated) ([2]; Test Conc. 1%): No heat needed
Dissolution water (Ambient), stirring time ([2]; Test Conc. 1%): Stirred for 3 min
Solution after 24 hrs ([2]; Test Conc. 1%): Clear
Solution after 48 hrs ([2]; Test Conc. 1%): Clear
Comment on solubility ([2]; Test Conc. 5%): Easily Soluble
Dissolution in water (Heated), temperature ([2]; Test Conc. 5%): 45 C.
Solution after 24 hrs ([2]; Test Conc. 5%): Clear
Solution after 48 hrs ([2]; Test Conc. 5%): Clear
Comment on solubility ([2]; Test Conc. 10%): Moderately
Dissolution in water (Heated), temperature ([2]; Test Conc. 10%): 54 C.
Solution after 24 hrs ([2]; Test Conc. 10%): Clear
Solution after 48 hrs ([2]; Test Conc. 10%): Slight
Solubility [2]: 10%
Structure (SMILES): C=C1C[C@@]23CC[C@H]4[C@@](C)(CCC[C@@]4(C)C(=O)O[C@@H]4O[C@H](CO)[C@@H](O)[C@H](O[C@@H]5O[C@H](CO)[C@@H](O)[C@H](O)[C@H]5O)[C@H]4O[C@@H]4O[C@H](CO)[C@@H](O)[C@H](O)[C@H]4O)[C@@H]2CC[C@]1(O[C@@H]1O[C@H](CO)[C@@H](O)[C@H](O)[C@H]1O[C@@H]1O[C@H](CO)[C@@H](O)[C@H](O)[C@H]1O)C3 [Reb AM, Rebaudioside AM]
impact on sweetness intensity ([5]; 50 ppm Reb AM added to shake with 300 ppm Reb A): no significant impact
bitter aftertaste vs control [5, 12]: lower
bitterness vs control [5, 12]: significantly lower
cocoa flavor vs control [5, 12]: significantly higher
dairy notes vs control [5, 12]: significantly higher
metallic note vs control [5, 12]: significantly lower
overall liking vs control [5, 12]: significantly higher
vanilla flavor vs control [5, 12]: significantly higher
whey protein vs control [5, 12]: significantly lower
Bitter Aftertaste mean score [5, 13]: 0.77
Bitterness mean score [5, 13]: 1.46
Cocoa Flavor mean score [5, 13]: 4.55
Dairy Note mean score [5, 13]: 4.59
Metallic Note mean score [5, 13]: 1.48
Overall Liking mean score [5, 13]: 5.59
Sweet Aftertaste mean score [5, 13]: 1.65
Sweet Intensity mean score [5, 13]: 5.98
Vanilla Note mean score [5, 13]: 2.52
Whey Protein Note mean score [5, 13]: 4.32
Solubility compared with other steviol glycosides ([2]; water): significantly higher solubility than other minor and major steviol glycosides
Sweetness Equivalent (ppm) in Water ([3]; 2.5% SE): 150 ppm
Sweetness Potency in Water ([3]; 2.5% SE): 167 x sugar equivalent
Sweetness Equivalent (ppm) in Water ([3]; 5.0% SE): 365 ppm
Sweetness Potency in Water ([3]; 5.0% SE): 137 x sugar equivalent
Sweetness Equivalent (ppm) in Water ([3]; 7.5% SE): 869 ppm
Sweetness Potency in Water ([3]; 7.5% SE): 86 x sugar equivalent
Sweetness Equivalent (ppm) in Water ([3]; 10.0% SE): 1750 ppm
Sweetness Potency in Water ([3]; 10.0% SE): 57 x sugar equivalent
% Frequency [1, 8]: 3.3%
PC (paired comparison count, panelists choosing the sample as sweeter) [1, 8]: 1
% Frequency [1, 9]: 23.3%
PC (paired comparison count, panelists choosing the sample as sweeter) [1, 9]: 7
% Frequency [1, 10]: 70%
PC (paired comparison count, panelists choosing the sample as sweeter) [1, 10]: 21
% Frequency [1, 11]: 90%
PC (paired comparison count, panelists choosing the sample as sweeter) [1, 11]: 27
Sweetness perception compared with 1.5% sugar solution ([1]; 50 ppm in water): significantly lower
Sweetness Perception Threshold Concentration ([1]; neutral water, vs 1.5% sugar solution): 50 ppm
bitterness compared to CSD with Reb D or Reb M [6]: significantly less
sweetness compared to CSD with Reb D or Reb M [6]: less sweet
sweetness lingering compared to CSD with Reb D or Reb M [6]: significantly less
sweet aftertaste intensity vs control ([7]; 50 ppm Reb AM in coconut water, 90% confidence): significantly lower
coconut water flavor vs control [7, 14]: significantly higher
mango peach flavor vs control [7, 14]: significantly higher
overall liking vs control [7, 14]: significantly higher
watermelon flavor vs control [7, 14]: significantly higher
Artificial/Chemical Note mean score [7, 15]: 2.55
Astringency mean score [7, 15]: 1.10
Bitter Aftertaste mean score [7, 15]: 0.29
Bitter Intensity mean score [7, 15]: 0.24
Coconut Flavor mean score [7, 15]: 5.11
Overall Liking mean score [7, 15]: 5.04
Raspberry Flavor mean score [7, 15]: 0.95
Sweet Aftertaste mean score [7, 15]: 1.33
Sweet Intensity mean score [7, 15]: 4.44
Watermelon Flavor mean score [7, 15]: 4.41

Source: patent US20210095322A1, “HIGH-PURITY STEVIOL GLYCOSIDES” (PureCircle USA Inc., priority 2018, published 2021)
